Test results taken from a melting point compilation (Tetko et al.; mined from patent text by program, amines drawn as free bases though some values may be those of a salt).

melting point	SMILES
156 to 157 °C	O=C(O)CCCN(C(=O)c1cccc(C(F)(F)F)c1)c1ccccc1-c1ccccc1
144 to 147 °C	CC(=O)OCc1nc(-c2ccc3c(c2)OCO3)c2cc3c(cc2n1)OCO3
205 to 209 °C	O=C(O)c1ccc2occ(-c3ccccc3)c2c1
119 to 120 °C	Cc1cccc(N2CCC(N)=N2)c1
81 to 86 °C	COc1c(OCc2ccc(-c3ccccc3S(=O)(=O)Nc3noc(C)c3C)c(COCCF)c2)cc(C)nc1C
263 °C	CC(C)Oc1ccc(-c2ccc3nc(C(=O)NC(Cc4ccc(OCc5ccccc5)cc4)C(=O)O)cn3c2)cc1 (stereo not drawn)
200 °C	CCCCCC(=O)n1c(N)nc2ccccc21
205 to 207 °C	COCCCNc1cccc(Oc2ccc(-c3cn(C4CCOCC4)c4ncnc(N)c34)cc2)c1C#N
173 to 174 °C	CC(C)(C)OC(=O)NCc1ccc2cc(O)ccc2c1
203 to 205 °C	c1ccc(-c2ccc(-c3nc4c5ccccc5ccn4n3)cc2)cc1
140 to 142 °C	Cn1ccnc1Sc1ccc(Nc2c(C#N)cnc3cc(-c4ccc(CN5CCNCC5)cc4)ccc23)cc1Cl
174 to 177 °C	CC1=NS(=O)(=O)N(C(c2ccccc2)c2ccccc2)C=C1
202 to 206 °C	CCc1oc2ccccc2c1C(=O)c1ccc(Br)c(S(N)(=O)=O)c1
144 to 145 °C	CC(C)(C#N)c1cc(Cn2cncn2)cc(C(N)=O)c1
99 to 101 °C	O=C(c1ccc(CNc2ncnc3ccccc23)cc1)N1CCN(c2ncc(Cc3ccccc3)cn2)CC1
121 °C	CCOC(=O)N1CCc2nc3cc(C)ccc3c(C)c2CC1
149 to 152 °C	CN1CC(CCN2CCOCC2)N(C)c2nc3ccccc3n2C1=O (stereo not drawn)
45 to 48 °C	CCCCCCCCC(=O)Oc1cc2c(s1)CCN(C(C(=O)C1CC1)c1ccccc1F)C2 (stereo not drawn)
106 °C	CC(C)(C)OC(=O)NCCNS(=O)(=O)c1ccc(Br)s1
134 to 135 °C	Cc1cncc(C)c1-c1c(C)cc(N)cc1C
143 °C	COC(=O)C(CCC#N)(CCC#N)C(=O)OC
219 to 222 °C	Cc1cccc(-c2c3c(cc4ccc(O)cc24)-c2ccc(O)cc2CO3)c1
76 to 77 °C	COc1cnccc1-c1csc(Cc2ccccc2)n1

melting point	SMILES
252 to 257 °C	O=C(Nc1ccc(C(F)(F)F)cc1)Nc1ccc(S(=O)(=O)Nc2ccc(Cl)cc2)cc1
216 to 217 °C	CCc1nn2ccccc2c1-c1n[nH]c(=O)cc1C
206 to 208 °C	COc1ccc(-c2nc(C(=O)O)c[nH]2)cc1OC1CCCC1
98 to 100 °C	COC(=O)c1ccc2c(=O)c(Cc3ccccc3)coc2c1
120 to 121 °C	O=C(Nc1ccc2c(c1)C(=O)CCCC2)OCc1ccccc1
100 to 102 °C	CCN(CC)C(=O)c1ccc(C(=O)N2CCN(c3ncccc3NC(C)C)CC2)nc1
121 to 122 °C	CSCCCCCn1c(C)nc2c(N)nc(C)c(C)c21
56 to 57 °C	CCc1ccc(C)cc1-n1cncc1C(=O)OC
> 300 °C	Cc1nc2[nH]c(=O)[nH]c2cc1-c1ccc([N+](=O)[O-])cc1
68 °C	CC(C)(Cc1ccc(F)cc1)NC(=O)c1coc(C2C3CCC(O3)C2Cc2ccccc2CCC(=O)O)n1 (stereo not drawn)
236 to 240 °C	Cc1nc2cc(-c3ccc4c(c3)C=C(C(=O)Nc3ccc(CN(C)C5CCOCC5)cc3)CCS4(=O)=O)ccc2o1
37 to 38 °C	CC(=O)OC/C(=C(\C(=O)N(C)CC(C)(C)SN=O)c1ccc(F)cc1)c1ccc(S(C)(=O)=O)cc1
176 to 178 °C	CCn1nc(-c2ccccc2)c(C(C)=O)c(Nc2cccc(F)c2)c1=O
134 to 136 °C	Cc1c(-c2ccc(Cl)cc2)[nH]c2ccc(OCc3ccccc3)cc12
136 to 137 °C	COc1cc(N)c(C)cc1N=Nc1ccc([N+](=O)[O-])cc1
262 to 264 °C	COc1ccc(C2Sc3cc(Oc4ccccc4)ccc3NC(=O)C2O)cc1Cl (stereo not drawn)
175 to 178 °C	CC(C)(C)c1nc(-c2ccc3c(c2)OCO3)[nH]c1C(C)(C)C
125 to 127 °C	Cn1cc(C2=C(c3c4n(c5ccccc35)CCN(C(=O)OC(C)(C)C)C4)C(=O)OC2=O)c2ccccc21
79 to 80 °C	CCCNC(=O)NCCc1c[nH]c2ccc(OC)cc12
189 °C	O=C1NCCCCC1NC(c1ccccc1)(c1ccccc1)c1ccccc1 (stereo not drawn)
136 to 137 °C	CC(O)c1cc(-c2cccc(F)c2)ccc1N (stereo not drawn)
166 to 167 °C	Cc1nc(N2CCN(Cc3ccc(OC(F)F)cc3)C2=O)sc1C(=O)NCc1cccnc1
204 to 206 °C	Cn1nnc(-c2ccc3c(c2)c(C2CCN(CCN4CCNC4=O)CC2)cn3-c2ccncc2)n1

melting point	SMILES
85 to 86 °C	COC(=O)c1ncn(CCCc2ccc(OCc3coc(/C=C/c4ccccc4)n3)cc2)c1C(=O)OC
220 to 222 °C	CC(C)n1nc(-c2cnc(N)nc2-c2cccc(F)c2)ccc1=O
232 to 235 °C	Cc1nc2cc3c(cc2c(=O)[nH]1)C(N(C)c1ccc(C(=O)NC(CCc2nnnn2CC(=O)O)C(=O)O)c(F)c1)CC3 (mixture of isomers)
177 to 178 °C	COc1cccc2cc(CNCCNC(=O)C34CCC(CC3=O)C4(C)C)oc12 (stereo not drawn)
220 to 222 °C	CCNc1cccc2c(S(=O)(=O)Nc3cnc(Br)cn3)cccc12
187 to 194 °C	COc1cc(OC)nc(NC(=O)NS(=O)(=O)c2cccc3sc(C)nc23)n1
224 to 226 °C	CCCCc1nc2ccccc2n1Cc1ccc(C(=O)O)cc1F
108 to 110 °C	CN(Cc1ccc2c(Br)c(O)ccc2c1)C(=O)c1oc2ccccc2c1CCc1ccccc1
207 to 209 °C	Nc1cccc2nc3c(nc12)N1CCCCC1CO3 (stereo not drawn)
193 to 194 °C	COC1(OC)CN(c2cc3c(cc2F)c(=O)c(C(=O)O)cn3-c2ccc(F)cc2F)CC1C (stereo not drawn)
107 to 108 °C	O=C(O)c1sc(-c2cccc(Cl)c2)nc1O
131 to 132 °C	O=C(O)COC(=O)c1ccccc1O
179 to 181 °C	CCN1C(=O)C(C)(C)c2ccc(C(=O)Nc3ccc(F)cc3)cc21
291 to 292 °C	CNC(=O)c1cc2c(nc(C)n2C)c2c1CCC(c1ccccc1)O2 (stereo not drawn)
206 to 207 °C	Fc1ccc(F)c(-c2coc3ccc(-c4nnc(S)o4)cc23)c1
128 °C	CCCC1CCC2c3ccc(OCC)c(F)c3OC2C1 (stereo not drawn)
119 to 122 °C	Clc1ccc(-c2cc(Cl)c3ccccc3n2)cc1
116 to 117 °C	CCOC(=O)C1=Cc2cc(Cl)c(Oc3ccc(OC)cc3)cc2OC1C(F)(F)F (stereo not drawn)
90.5 to 95 °C	O=C(Nc1ccc(F)cc1F)c1ccccn1
119 to 120 °C	CCCCOC(=O)c1cn(CC)c2nc(N3CCNCC3)c(F)cc2c1=O
129 to 131 °C	Brc1ccc(-c2nc(-c3cccc(Br)c3)n(-c3ccccc3)n2)cc1
166 to 168 °C	CC(=O)Nc1ccc(-c2cccc(-n3c(-c4cccnc4N)nc4cc(-c5cccc(NC(C)=O)c5)c(-c5cccnc5)nc43)c2)cc1
83 to 86 °C	CN(C)S(=O)(=O)N[Si](C)(C)C

melting point	SMILES
197 to 198 °C	CCOC(=O)c1nc(-c2ccc(F)cc2)[nH]c1CC
74 to 77 °C	COc1ccc(C2CCC(c3ccc4ccccc4c3)O2)cc1OC (stereo not drawn)
262 to 265 °C	CCc1ccc(Nc2ncc(Cc3ccc(O)nc3)c3ncccc23)cc1Br
224 to 227 °C	O=C1CC(c2cccc(-n3ccnc3)c2)=Nc2cc(OCCO)c(C#Cc3ccccc3)cc2N1
204 to 206 °C	N#Cc1c2n(c(=O)n1-c1cc(O)c(Cl)cc1F)CCCC2
255 to 256 °C	Cn1c(-c2ccccc2)c2c(c(C#N)c1=O)-c1ccccc1C2=O
31 to 33 °C	N#CC(N)c1cccc(Cl)c1 (stereo not drawn)
115 to 116 °C	O=[N+]([O-])c1ccc(N2CCCNCC2)cc1
84 to 85 °C	FC(F)(F)C(F)(F)CCCSCCCCCOc1ccc(C2=C(c3ccccc3)CCCc3ccccc32)cc1
150 to 152 °C	N#Cc1cc(C(F)(F)F)cc(Cl)c1F
193 to 194 °C	COc1ccc(-c2nc(-c3ccccc3)c(-c3ccncc3)n2C)cc1
142 to 143 °C	CN1C(=O)OC(C)(C)c2cc(-c3cccc(Br)c3)ccc21
158 to 159 °C	COCCNC(=O)c1cccc(-c2ccc(F)c3cc(Cc4cccc(S(C)(=O)=O)c4)sc23)c1
58 to 69 °C	CCOc1cc(N(CC)CC)ccc1C1(N(c2ccc(N(C)C)cc2)c2ccc(N(C)C)cc2)OC(=O)c2ccccc21 (stereo not drawn)
> 260 °C	O=C(Nc1nc2ccc(Sc3cnc4ncccn34)cc2s1)c1ccccc1
100 °C	Cc1cccc(-c2ccc3ccc(NC(=O)c4cccc(Br)c4)nc3n2)c1
344 to 349 °C	COC(=O)c1ccc2c(c1)NC(=O)c1cccnc1N2
92 to 94 °C	Nc1nc(OCc2cccs2)ncc1F
115 to 116 °C	CCn1nc(-c2ccccc2)c(C(=O)CCc2ccccc2)c(N)c1=O
213 °C	Cc1cc(-c2cnn3c(C(F)F)cc(-c4ccc(C(F)(F)F)cc4)nc23)ccn1
103 °C	CCCCCCOC(=O)C1=C(C)NN=C(c2ccccc2)C1c1cccc(Cl)c1 (stereo not drawn)
258 to 259 °C	Oc1ccc2c(-c3cccc4c(O)cccc34)noc2c1

SMILES	melting point
O=C(O)c1cncc(O)c1	> 260 °C
CCOC(=O)NC1N=C(c2ccccc2)c2ccccc2-n2c(C)nnc21 (stereo not drawn)	198 to 202 °C
O=C(NC1CCOC1=O)c1cc2c(n(CC3CCCCC3)c1=O)CCCCCC2 (stereo not drawn)	136 to 140 °C
CCc1nnc2n1-c1ccc(I)cc1C(c1ccccc1F)=NC2	209 to 211 °C
CCC1N=C(c2ccccc2Cl)c2cc(CCC(=O)O)sc2-n2c(C)nnc21 (stereo not drawn)	218 to 220 °C
Cc1nnc2n1-c1ccccc1C(c1ccccc1Cl)OC2C (stereo not drawn)	176 to 178 °C
CN1C(=O)[C@H](NC(=O)CCc2ccccc2C(F)(F)F)N=C(c2ccccc2)c2ccccc21	110 to 113 °C
